Legend:
EPC2-ALI cells [1] = test: qPCR mRNA expression of EoE proliferation and inflammatory genes in EPC2-ALI; type: cell-based, human; conditions: in the presence of SD-36
Method: (§1) EPC2-ALI culture—hTERT immortalized human esophageal epithelial keratinocytes (hTERT-EPC2) were cultured under air-liquid-interface conditions as described 9, 41. In brief, EPC2-hTERT cells were seeded onto permeable (0.4 μm) transwell support (Corning Incorporated, Corning, NY, USA) and grown to confluence while fully submerged in low-calcium ([Ca2+]=0.09 mM) keratinocyte serum-free media (K-SFM) (Life Technologies; Carlsbad, CA). Epithelial differentiation was induced by culturing submerged cell monolayers in high-calcium K-SFM ([Ca2+]=1.8 mM) for 4 days (day 3 to 7). Cells were then exposed for 5 days (day 7 to 12) at ALI by removing cell media from the top chamber, to induce stratification.
Quantitative PCR—RNA was extracted from EPC2-ALI cells by using the Quick-RNA Microprep Kit (Zymo Research Corporation) according to the manufacturer's protocol. Purified RNA (500 ng) was DNase treated and reverse transcribed to cDNA by using Superscript II RNase H Reverse Transcriptase (Thermo Fisher Scientific, Rockford, Ill), according to the manufacturer's instructions. cDNA for ANO1, CAPN14, CCL26, TP63, SFRP1, STAT3 and hypoxanthine phosphoribosyltransferase (HPRT) was quantified by using real-time PCR with the IQ SYBR Green Supermix (Bio-Rad Laboratories, Hercules, Calif) with the CFX96 Touch Real-Time PCR Detection System (Bio-Rad Laboratories). Quantitative PCR (qPCR) analyses were performed by using Bio-Rad CFX Manager Software (version 3.1; Bio-Rad Laboratories), and the results were normalized with HPRT amplified from the same cDNA mix and expressed as fold induction (2^-(ΔΔCT). Primers used for amplification were: […]

STAT3 = molecular target: T1, STAT3 (Homo sapiens, UniProt P40763); test: Western blot of EPC2-ALI for total and phosphorylated STAT3; type: cell-based; conditions: SD-36 10 uM
T1 construct: endogenous in cells; host or cells: hTERT-EPC2 human esophageal epithelial keratinocytes at air-liquid interface (EPC2-ALI)
Method: as §1
Western blot—EPC2 ALI cells and primary esophageal cells were lysed following stimulation, using a protein extraction reagent (10% Glycerol, 20 mM Tris HCl pH7, 137 mM NaCl, 2 mM EDTA, 1% NP-40 in H2O) with Halt™ protease inhibitor cocktail (Thermo Fisher Scientific Incorporated; Rockford, IL, USA) and PhosSTOP phosphatase inhibitor cocktail tablet (Roche Diagnostics; Mannheim, Germany). […] of protein extract were separated on a 4%-12% Bis-Tris gel and transferred to a nitrocellulose membrane (Life Technologies; Carlsbad, CA). […]

EPC2-ALI cells [2] = test: Quantification of Ki67-positive EPC2-ALI cells; type: cell-based, human; conditions: for Ki67+ EPC2-ALI cells under IL-13-stimulation: compared to IL-13 alone; for Ki67+ EPC2-ALI cells, treatment alone: without IL-13, compared to steady-state (Vehicle)
Method: as §1
Quantification of Ki67-positive EPC2-ALI cells—EPC2-ALI cells were cultured in the presence or absence of their respective stimulations for 48 hours. For immunofluorescence (IF) staining, formalin- or paraformaldehyde-fixed, paraffin-embedded transwell sections were sectioned, mounted on slides, and deparaffinized by using standard histologic procedures. Slides were then permeabilized in Tris-EDTA (1 mmol/L, pH 9.0) with 0.1% Tween-20, and antigen exposure was performed at 125° C. for 30 seconds in a decloaking chamber by using a pressure cooker. Slides were then blocked by 10% normal donkey serum for 1 hour, followed by overnight incubation of primary antibodies diluted in 10% normal donkey serum at a final concentration of 1 μg/mL: anti-Ki67 (1:1000; clone: SolA15; Invitrogen), slides were then washed and incubated with secondary antibody at RT for 1 hour. Slides were mounted with 4′-6-diamidino-2-phenylindole dihydrochloride Fluoromount-G (SouthernBiotech, Birmingham, Ala) mounting solution. Fluorescent imaging was performed with the Zeiss Apotome fluorescent microscope (Carl Zeiss Meditec, Dublin, Calif) using Nikon Elements software. Ki67+ cells were quantified as the number of Ki67+-labeled cells per total linear length of filter-attached EPC2-ALI cells using FIJI ImageJ. Three filters per condition from 3 individual experiments were quantitated.

IL4Rα chain = molecular target: T2, IL4Rα chain (Homo sapiens, UniProt P24394); conditions: adults with active EoE, weekly subcutaneous injections; cited from earlier work
T2 construct: adults with active EoE who received weekly subcutaneous injections of dupilumab; host or cells: human patients (in vivo)

IL-13 = molecular target: T3, IL-13 (Homo sapiens, UniProt P35225); conditions: cited from earlier work
T3 construct: Treatment of adult EoE patients with RPC4046, a recombinant humanized monoclonal antibody against IL-13 improves histologic and endoscopic outcomes; host or cells: human patients (in vivo)
T3 sequence (P35225 25-146): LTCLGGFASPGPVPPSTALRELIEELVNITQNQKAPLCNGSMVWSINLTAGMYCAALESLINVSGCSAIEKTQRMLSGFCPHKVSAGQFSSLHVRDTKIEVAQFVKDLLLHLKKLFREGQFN

T1 sequence (P40763 whole entry): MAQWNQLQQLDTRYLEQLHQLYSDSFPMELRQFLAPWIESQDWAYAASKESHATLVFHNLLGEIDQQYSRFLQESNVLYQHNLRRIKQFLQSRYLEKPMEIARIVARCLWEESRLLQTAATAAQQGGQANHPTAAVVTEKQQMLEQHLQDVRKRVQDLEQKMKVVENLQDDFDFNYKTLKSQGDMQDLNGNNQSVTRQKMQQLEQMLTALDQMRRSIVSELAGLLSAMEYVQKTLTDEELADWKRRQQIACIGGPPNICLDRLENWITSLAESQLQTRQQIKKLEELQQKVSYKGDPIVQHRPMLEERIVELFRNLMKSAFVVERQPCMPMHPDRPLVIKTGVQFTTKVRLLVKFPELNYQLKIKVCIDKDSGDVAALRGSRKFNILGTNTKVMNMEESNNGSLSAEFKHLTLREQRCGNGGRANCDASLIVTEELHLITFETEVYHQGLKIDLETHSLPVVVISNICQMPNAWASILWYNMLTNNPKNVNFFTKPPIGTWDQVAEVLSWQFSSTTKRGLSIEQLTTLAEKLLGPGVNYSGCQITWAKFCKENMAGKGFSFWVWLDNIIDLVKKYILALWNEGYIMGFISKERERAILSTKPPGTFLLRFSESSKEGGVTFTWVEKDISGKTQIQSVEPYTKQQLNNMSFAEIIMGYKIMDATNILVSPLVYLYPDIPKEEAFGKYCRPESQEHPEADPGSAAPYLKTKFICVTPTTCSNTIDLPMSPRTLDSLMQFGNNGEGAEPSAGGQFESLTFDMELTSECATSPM

NC(=O)CC[C@H](NC(=O)[C@@H]1CC[C@@H]2CCN(C(=O)CCCCCC#Cc3cccc4c3CN(C3CCC(=O)NC3=O)C4=O)C[C@H](NC(=O)c3cc4cc(C(F)(F)P(=O)(O)O)ccc4[nH]3)C(=O)N21)C(=O)NC(c1ccccc1)c1ccccc1 (stereo partly drawn) [SD-36]
IL-13-induced mRNA expression of ANO1 (EPC2-ALI cells [1]): abolished | IL-13-induced mRNA expression of TP63 (EPC2-ALI cells [1]): abolished | IL-13 induction of canonical EoE inflammatory genes (CCL26, SLC9A3, CAPN14) mRNA (EPC2-ALI cells [1]): not significantly inhibited | IL-13 induced phosphorylation of STAT3 Y705 and Y727 residues (STAT3; IL-13 100 ng/mL): total loss | degradation of STAT3 (total STAT3 protein) (STAT3; at steady state and following IL-13-stimulation (100 ng/mL)): led to degradation of STAT3 | IL-13-induced increase in EPC2-ALI Ki-67+ cells (EPC2-ALI cells [2]; SD-36 10 uM, IL-13 100 ng/mL, 48 hours): attenuated

O=S(=O)(NC1CCNCC1)c1cc(S(=O)(=O)c2ccccc2)ccc1C(F)(F)F [SFRP1inh]
Ki67+ EPC2-ALI cells under IL-13-stimulation (EPC2-ALI cells [2]): increase | Ki67+ EPC2-ALI cells, treatment alone (EPC2-ALI cells [2]): increase

dupilumab: fully human IgG4 monoclonal antibody that binds the IL4Rα chain and blocks both IL-4 and IL-13 signaling
esophageal distensibility (IL4Rα chain): increased | histologic and endoscopic severity scores (IL4Rα chain): decreased | peak esophageal eosinophil count (IL4Rα chain): reduced

B1: rSFRP1: recombinant secreted frizzled-related protein 1, used as pharmacologic agonist (protein, UniProt Q8N474 32-314, looked up)
Secreted frizzled-related …: SEYDYVSFQSDIGPYQSGRFYTKPPQCVDIPADLRLCHNVGYKKMVLPNLLEHETMAEVKQQASSWVPLLNKNCHAGTQVFLCSLFAPVCLDRPIYPCRWLCEAVRDSCEPVMQFFGFYWPEMLKCDKFPEGDVCIAMTPPNATEASKPQGTTVCPPCDNELKSEAIIEHLCASEFALRMKIKEVKKENGDKKIVPKKKKPLKLGPIKKKDLKKLVLYLKNGADCPCHQLDNLSHHFLIMGRKVKSQYLLTAIHKWDKKNKEFKNFMKKMKNHECPTFQSVFK
Ki67+ EPC2-ALI cells under IL-13-stimulation (EPC2-ALI cells [2]): decrease | Ki67+ EPC2-ALI cells, treatment alone (EPC2-ALI cells [2]): sufficient to inhibit esophageal epithelial proliferation

B2: RPC4046: recombinant humanized monoclonal antibody against IL-13 (antibody, chains of the INN, looked up, V domains shown)
VH: EVTLRESGPGLVKPTQTLTLTCTLYGFSLSTSDMGVDWIRQPPGKGLEWLAHIWWDDVKRYNPALKSRLTISKDTSKNQVVLKLTSVDPVDTATYYCARTVSSGYIYYAMDYWGQGTLVTVSS
VL: DIQMTQSPSSLSASVGDRVTISCRASQDIRNYLNWYQQKPGKAPKLLIFYTSKLHSGVPSRFSGSGSGTDYTLTISSLQPEDIATYYCQQGNTLPLTFGGGTKVEIK
endoscopic, histologic and clinical improvement in long-term extension (IL-13; 52-week open-label LTE study, 360 mg/week): sustained endoscopic, histologic and clinical improvement | histologic and endoscopic outcomes (IL-13; adult EoE patients): improves

From patent US20260240940A1, “REGULATING DISEASE OR DISORDER CHARACTERIZED BY ESOPHAGEAL EPITHELIAL PROLIFERATION THROUGH SECRETED FRIZZLED-RELATED PROTEIN 1 (SFRP1)” (The Regents of the University of Michigan, priority 2023, published 2026)
